Test results from ChEMBL document CHEMBL5543164 (J Med Chem, 2024).

Assays:
[1] = target: Serine/threonine-protein kinase mTOR (Homo sapiens, UniProt P42345)
[2] = target: Phosphatidylinositol 4,5-bisphosphate 3-kinase catalytic subunit beta isoform (Homo sapiens, UniProt P42338)
[3] = target: T1, Phosphatidylinositol 4,5-bisphosphate 3-kinase catalytic subunit delta isoform (Homo sapiens, UniProt O00329)
T1 sequence (O00329 whole entry): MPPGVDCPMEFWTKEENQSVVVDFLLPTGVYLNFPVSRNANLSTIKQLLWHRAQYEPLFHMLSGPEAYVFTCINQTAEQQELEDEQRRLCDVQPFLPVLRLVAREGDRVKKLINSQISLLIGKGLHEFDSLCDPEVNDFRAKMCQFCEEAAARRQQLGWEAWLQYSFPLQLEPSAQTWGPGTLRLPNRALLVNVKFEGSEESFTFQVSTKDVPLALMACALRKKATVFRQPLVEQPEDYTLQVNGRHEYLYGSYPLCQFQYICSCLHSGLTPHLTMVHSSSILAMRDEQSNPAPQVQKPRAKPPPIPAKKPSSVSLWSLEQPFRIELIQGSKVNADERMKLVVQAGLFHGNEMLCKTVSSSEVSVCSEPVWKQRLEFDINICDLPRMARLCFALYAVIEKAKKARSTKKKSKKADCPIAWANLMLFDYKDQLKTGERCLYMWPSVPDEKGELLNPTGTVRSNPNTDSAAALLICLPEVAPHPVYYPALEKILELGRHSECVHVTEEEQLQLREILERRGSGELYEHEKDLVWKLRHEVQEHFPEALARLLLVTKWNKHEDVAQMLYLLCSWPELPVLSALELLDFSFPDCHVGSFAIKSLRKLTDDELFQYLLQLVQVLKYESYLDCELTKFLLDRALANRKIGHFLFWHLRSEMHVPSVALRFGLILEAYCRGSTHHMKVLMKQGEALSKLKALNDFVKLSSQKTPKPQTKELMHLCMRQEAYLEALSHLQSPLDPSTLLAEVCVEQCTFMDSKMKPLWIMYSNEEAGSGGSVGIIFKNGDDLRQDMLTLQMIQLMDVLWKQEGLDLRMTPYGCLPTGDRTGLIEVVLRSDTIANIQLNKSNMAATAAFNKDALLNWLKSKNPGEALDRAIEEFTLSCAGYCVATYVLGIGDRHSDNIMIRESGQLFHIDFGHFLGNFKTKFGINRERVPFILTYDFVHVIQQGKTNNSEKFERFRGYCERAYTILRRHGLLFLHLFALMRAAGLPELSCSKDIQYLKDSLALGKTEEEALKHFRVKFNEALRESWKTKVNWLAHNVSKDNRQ

[4] = target: Phosphatidylinositol 4,5-bisphosphate 3-kinase catalytic subunit gamma isoform (Homo sapiens, UniProt P48736); test: Inhibition of PI3Kgamma (unknown origin) by ADP-glo plus luminescence assay
Chain of Phosphatidylinositol 4,5-bisphosphate 3-kinase catalytic subunit gamma isoform (P48736 whole entry, canonical isoform): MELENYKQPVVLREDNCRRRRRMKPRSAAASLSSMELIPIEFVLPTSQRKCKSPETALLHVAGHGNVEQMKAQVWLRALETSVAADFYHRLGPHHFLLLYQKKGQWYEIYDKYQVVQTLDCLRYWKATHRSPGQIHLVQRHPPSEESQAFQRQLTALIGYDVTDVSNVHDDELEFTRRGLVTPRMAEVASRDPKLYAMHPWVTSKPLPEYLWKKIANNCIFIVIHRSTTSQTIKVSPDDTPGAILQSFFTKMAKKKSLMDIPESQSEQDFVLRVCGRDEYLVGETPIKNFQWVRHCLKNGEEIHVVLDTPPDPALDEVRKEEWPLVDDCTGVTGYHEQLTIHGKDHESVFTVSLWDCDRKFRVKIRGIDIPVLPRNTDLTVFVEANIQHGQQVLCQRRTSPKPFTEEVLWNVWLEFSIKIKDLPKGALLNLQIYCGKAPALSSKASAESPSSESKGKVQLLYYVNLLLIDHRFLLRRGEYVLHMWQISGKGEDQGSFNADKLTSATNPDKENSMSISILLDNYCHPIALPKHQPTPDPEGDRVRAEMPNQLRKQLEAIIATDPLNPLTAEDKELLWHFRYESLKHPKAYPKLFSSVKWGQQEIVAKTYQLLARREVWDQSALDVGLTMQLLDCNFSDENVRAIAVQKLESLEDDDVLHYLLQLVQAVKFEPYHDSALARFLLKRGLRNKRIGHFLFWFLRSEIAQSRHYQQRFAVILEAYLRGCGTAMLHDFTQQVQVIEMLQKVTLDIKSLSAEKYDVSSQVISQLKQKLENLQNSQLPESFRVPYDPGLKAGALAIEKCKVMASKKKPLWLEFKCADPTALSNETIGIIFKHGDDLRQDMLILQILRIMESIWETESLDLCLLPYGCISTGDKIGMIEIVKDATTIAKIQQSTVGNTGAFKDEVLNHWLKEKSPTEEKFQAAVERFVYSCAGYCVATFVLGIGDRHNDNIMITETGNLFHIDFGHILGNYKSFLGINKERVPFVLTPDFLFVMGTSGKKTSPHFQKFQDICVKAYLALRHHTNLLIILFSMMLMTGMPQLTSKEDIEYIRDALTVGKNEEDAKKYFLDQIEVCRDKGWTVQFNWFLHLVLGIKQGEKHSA

[5] = target: Phosphatidylinositol 4,5-bisphosphate 3-kinase catalytic subunit alpha isoform (Homo sapiens, UniProt P42336); test: Inhibition of PI3Kalpha (unknown origin) by ADP-glo plus luminescence assay
Chain of Phosphatidylinositol 4,5-bisphosphate 3-kinase catalytic subunit alpha isoform (P42336 whole entry, canonical isoform): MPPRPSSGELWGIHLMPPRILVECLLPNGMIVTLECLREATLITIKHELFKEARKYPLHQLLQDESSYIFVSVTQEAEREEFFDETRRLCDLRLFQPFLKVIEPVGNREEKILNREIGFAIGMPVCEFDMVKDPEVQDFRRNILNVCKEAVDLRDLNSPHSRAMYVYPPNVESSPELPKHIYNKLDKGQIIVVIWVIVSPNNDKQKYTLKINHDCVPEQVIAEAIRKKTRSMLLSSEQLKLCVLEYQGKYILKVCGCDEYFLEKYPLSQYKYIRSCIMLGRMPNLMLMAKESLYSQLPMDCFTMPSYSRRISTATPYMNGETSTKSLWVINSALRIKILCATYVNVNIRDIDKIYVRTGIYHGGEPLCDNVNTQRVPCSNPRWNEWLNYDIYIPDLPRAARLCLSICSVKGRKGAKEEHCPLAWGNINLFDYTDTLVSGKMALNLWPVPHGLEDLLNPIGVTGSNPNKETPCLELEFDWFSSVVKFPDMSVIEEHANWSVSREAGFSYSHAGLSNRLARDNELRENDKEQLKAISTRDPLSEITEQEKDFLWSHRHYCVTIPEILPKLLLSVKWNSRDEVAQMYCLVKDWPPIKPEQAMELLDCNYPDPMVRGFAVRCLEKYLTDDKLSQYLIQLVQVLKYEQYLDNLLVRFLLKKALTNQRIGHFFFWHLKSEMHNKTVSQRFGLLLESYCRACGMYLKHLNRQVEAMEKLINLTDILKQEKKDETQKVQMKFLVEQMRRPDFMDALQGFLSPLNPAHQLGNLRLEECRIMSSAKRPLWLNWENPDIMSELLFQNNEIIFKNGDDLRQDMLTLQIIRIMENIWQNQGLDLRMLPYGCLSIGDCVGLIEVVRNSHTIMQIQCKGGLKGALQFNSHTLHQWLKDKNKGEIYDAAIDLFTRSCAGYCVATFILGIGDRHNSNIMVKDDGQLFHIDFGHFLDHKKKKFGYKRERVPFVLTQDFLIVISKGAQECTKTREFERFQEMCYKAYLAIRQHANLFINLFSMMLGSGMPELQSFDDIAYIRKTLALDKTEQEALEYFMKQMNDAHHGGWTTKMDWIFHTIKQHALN

Cytochrome P450 1A2 = target: T2, Cytochrome P450 1A2 (Homo sapiens, UniProt P05177); test: Inhibition of CYP1A2 (unknown origin); type: ADME
T2 sequence (P05177 whole entry): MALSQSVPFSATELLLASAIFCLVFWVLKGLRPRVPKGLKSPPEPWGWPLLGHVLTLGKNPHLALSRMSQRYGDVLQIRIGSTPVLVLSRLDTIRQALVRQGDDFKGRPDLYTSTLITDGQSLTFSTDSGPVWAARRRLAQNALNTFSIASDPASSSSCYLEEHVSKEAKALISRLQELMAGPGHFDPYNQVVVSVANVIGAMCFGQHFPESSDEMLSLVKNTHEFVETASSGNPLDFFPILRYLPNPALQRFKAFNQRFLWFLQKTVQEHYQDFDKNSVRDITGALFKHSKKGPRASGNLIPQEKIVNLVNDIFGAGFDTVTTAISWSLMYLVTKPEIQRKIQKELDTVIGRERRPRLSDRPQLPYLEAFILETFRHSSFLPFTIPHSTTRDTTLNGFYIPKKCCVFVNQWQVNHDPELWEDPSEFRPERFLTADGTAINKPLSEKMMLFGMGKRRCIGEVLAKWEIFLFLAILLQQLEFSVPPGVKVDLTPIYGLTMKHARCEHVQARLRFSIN

Cytochrome P450 2C19 = Cytochrome P450 2C19 (Homo sapiens, UniProt P33261); test: Inhibition of CYP2C19 (unknown origin); type: ADME
Chain of Cytochrome P450 2C19 (P33261 whole entry): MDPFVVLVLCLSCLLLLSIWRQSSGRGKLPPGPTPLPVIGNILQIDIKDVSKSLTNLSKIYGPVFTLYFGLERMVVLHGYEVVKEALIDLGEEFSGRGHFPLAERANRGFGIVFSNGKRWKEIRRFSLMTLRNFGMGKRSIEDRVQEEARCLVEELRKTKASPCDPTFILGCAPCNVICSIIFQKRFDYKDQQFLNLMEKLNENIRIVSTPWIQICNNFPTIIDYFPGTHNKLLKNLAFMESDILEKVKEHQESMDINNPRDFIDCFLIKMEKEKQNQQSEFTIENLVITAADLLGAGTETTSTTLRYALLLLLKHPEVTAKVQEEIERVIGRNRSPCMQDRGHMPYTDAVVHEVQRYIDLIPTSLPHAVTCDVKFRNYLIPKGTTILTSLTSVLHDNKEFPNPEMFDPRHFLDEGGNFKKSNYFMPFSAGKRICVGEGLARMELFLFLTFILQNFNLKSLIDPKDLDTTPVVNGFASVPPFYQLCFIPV

Cytochrome P450 3A4 = Cytochrome P450 3A4 (Homo sapiens, UniProt P08684); test: Inhibition of CYP3A4-M (unknown origin); type: ADME
Chain of Cytochrome P450 3A4 (P08684 whole entry): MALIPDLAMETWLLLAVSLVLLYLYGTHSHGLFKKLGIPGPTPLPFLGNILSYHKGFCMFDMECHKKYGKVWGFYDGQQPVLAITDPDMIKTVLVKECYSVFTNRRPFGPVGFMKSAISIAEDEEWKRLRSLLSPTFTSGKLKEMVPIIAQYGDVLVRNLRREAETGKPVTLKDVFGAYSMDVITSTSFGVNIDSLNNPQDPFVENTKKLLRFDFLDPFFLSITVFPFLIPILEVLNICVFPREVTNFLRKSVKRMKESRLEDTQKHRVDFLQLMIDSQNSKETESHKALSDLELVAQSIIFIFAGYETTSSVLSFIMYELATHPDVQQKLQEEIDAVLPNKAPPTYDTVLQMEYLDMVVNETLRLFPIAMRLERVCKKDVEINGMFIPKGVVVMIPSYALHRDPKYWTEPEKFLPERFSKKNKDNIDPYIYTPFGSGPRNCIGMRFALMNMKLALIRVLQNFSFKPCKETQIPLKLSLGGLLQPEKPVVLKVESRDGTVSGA

Cytochrome P450 2C9 = Cytochrome P450 2C9 (Homo sapiens, UniProt P11712); test: Inhibition of CYP2C9 (unknown origin); type: ADME
[6] = target: Voltage-gated inwardly rectifying potassium channel KCNH2 (Homo sapiens, UniProt Q12809); test: Inhibition of hERG; type: toxicity
Cytochrome P450 2D6 = Cytochrome P450 2D6 (Homo sapiens, UniProt P10635); test: Inhibition of CYP2D6 (unknown origin); type: ADME
Chain of Cytochrome P450 2D6 (P10635 whole entry): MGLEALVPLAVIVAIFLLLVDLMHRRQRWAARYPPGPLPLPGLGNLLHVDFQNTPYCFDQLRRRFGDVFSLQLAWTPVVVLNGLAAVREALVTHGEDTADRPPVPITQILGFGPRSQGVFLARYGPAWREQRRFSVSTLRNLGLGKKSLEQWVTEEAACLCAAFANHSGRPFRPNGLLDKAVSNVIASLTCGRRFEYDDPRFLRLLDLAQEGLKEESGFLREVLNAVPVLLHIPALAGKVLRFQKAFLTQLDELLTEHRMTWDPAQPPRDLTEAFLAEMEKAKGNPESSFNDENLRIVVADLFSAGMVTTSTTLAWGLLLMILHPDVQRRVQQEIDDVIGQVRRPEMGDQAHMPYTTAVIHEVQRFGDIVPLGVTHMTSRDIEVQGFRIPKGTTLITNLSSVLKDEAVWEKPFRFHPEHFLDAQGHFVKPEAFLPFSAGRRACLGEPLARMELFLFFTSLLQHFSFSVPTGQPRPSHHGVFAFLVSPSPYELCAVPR

Chain of Phosphatidylinositol 4,5-bisphosphate 3-kinase catalytic subunit beta isoform (P42338 whole entry, canonical isoform): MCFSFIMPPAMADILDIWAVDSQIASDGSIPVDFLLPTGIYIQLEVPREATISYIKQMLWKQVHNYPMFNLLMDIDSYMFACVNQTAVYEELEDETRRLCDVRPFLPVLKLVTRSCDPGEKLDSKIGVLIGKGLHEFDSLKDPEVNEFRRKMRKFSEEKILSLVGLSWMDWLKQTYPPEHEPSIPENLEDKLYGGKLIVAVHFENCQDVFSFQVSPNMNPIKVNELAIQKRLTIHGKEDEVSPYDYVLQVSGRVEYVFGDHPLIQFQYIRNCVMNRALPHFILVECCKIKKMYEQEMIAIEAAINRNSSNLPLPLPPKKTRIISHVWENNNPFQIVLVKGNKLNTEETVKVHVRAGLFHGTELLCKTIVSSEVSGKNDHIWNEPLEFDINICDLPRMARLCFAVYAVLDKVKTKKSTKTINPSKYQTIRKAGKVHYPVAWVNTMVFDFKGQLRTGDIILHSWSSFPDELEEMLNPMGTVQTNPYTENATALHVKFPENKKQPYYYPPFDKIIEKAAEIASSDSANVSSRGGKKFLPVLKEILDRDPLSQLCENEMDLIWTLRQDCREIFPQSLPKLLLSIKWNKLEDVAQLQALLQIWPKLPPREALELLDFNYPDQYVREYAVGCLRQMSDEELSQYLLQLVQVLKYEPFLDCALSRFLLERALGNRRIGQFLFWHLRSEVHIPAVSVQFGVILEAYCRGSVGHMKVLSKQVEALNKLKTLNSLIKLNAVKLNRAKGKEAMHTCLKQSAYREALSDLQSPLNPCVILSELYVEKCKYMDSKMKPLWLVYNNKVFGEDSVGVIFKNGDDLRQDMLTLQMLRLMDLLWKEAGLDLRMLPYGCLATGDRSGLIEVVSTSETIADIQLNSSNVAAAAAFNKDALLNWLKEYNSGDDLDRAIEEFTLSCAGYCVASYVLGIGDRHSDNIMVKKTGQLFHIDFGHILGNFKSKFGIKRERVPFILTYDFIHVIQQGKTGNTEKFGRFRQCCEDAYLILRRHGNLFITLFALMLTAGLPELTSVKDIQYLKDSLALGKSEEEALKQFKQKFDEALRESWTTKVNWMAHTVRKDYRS

Compound | IC50 [1] [nM] | IC50 [2] [nM] | IC50 [3] [nM] | IC50 [4] [nM] | also measured
CC(C)(C)OC(=O)N1CC2CCC(C1)N2c1nc(-c2ccc(NC(=O)Nc3ccc4c(c3)COC4=O)cc2)nc(N2CCOCC2)n1 | 147 |  |  |  | 
O=C(Nc1ccc(-c2nc(N3CCOCC3)nc(N3CCO[C@@H](CO)C3)n2)cc1)Nc1ccc2c(c1)COC2=O |  | 157 | 234 | 228 | 
CC(C)(C)OC(=O)N1C(=O)c2ccc(NC(=O)Nc3ccc(-c4nc(N5CCOCC5)nc(N5CCOCC5)n4)cc3)cc2C1=O |  |  |  |  | IC50 [5]: 379 nM
O=C(Nc1ccc(-c2nc(N3CCOCC3)nc(N3CCO[C@H](CO)C3)n2)cc1)Nc1ccc2c(c1)COC2=O |  | 93 | 161 | 228 | 
O=C(Nc1ccc(-c2nc(N3C4CCC3COC4)nc(N3C4CCC3COC4)n2)cc1)Nc1ccc2c(c1)COC2=O | 1.2 | > 10000 | > 10000 | > 10000 | IC50 (Cytochrome P450 1A2): > 10000 nM; IC50 (Cytochrome P450 2C19): > 10000 nM; IC50 (Cytochrome P450 3A4): > 10000 nM; IC50 (Cytochrome P450 2C9): > 10000 nM; IC50 [6]: > 30000 nM; IC50 (Cytochrome P450 2D6): > 10000 nM
C[C@H]1COCCN1c1nc(-c2ccc(NC(=O)Nc3ccc4c(c3)COC4=O)cc2)nc(N2CCOCC2)n1 |  | 754 | 1320 | 725 | 
CC1OC(=O)c2cc(NC(=O)Nc3ccc(-c4nc(N5CCOCC5)nc(N5CCOCC5)n4)cc3)ccc21 (stereo not drawn) | 7.2 |  |  |  | IC50 [5]: 45.4 nM
